The record followed here is ChEMBL document CHEMBL1201862, “PubChem BioAssay data set” (2004).

Some test systems named below: A498; CAKI-1; CCRF-CEM; COLO 205; HCC 2998; HOP-92; MOLT-4; Malme-3M; NCI-H226; NCI-H460; NCI/ADR-RES; OVCAR-3; OVCAR-4; OVCAR-5; SK-MEL-28; SK-MEL-2; SNB-19; U-251; UACC-257; NCI-H23.
Assay in all cases: inhibition of tumour cell growth, NCI panel, 48 h

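Dose response: 5 concentrations. Exposure: 48 h. Format: 96-well plates. Endpoint: linear interpolation; highest concentration if not reached. GI50: concentration for 50% inhibition of growth.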 Calls of active or inactive are those of the source. Cut-off read from the data, not from the text of the source: active = GI50 up to about 1.1 µM and inactive = higher.

Regarding `C/C=C1\C[C@@H]2C(OC)Nc3cc(O)c(OC)cc3C(=O)N2C1` (stereo not given in full), the GI50 with A498 is 0.0273 µM (active); in the experiment with CAKI-1 it was < 0.01 µM (active); with CCRF-CEM, < 0.01 µM (active); with COLO 205, 0.00692 µM (active); with HCC 2998 it was 0.0158 µM (active); in the experiment on HOP-92, < 0.01 µM (active). The GI50 in the experiment with MOLT-4 was < 0.01 µM (active); in the experiment with Malme-3M it was < 0.01 µM (active); in the experiment on NCI-H226 it was 0.0223 µM (active); with NCI-H460 it was < 0.01 µM (active); in the experiment on NCI/ADR-RES, < 0.01 µM (active); in the experiment on OVCAR-3, < 0.01 µM (active). The GI50 with OVCAR-4 was < 0.01 µM (active); in the experiment on OVCAR-5, < 0.01 µM (active); in the experiment on SK-MEL-28, < 0.0107 µM (active); in the experiment on SK-MEL-2, < 0.01 µM (active); in the experiment with SNB-19 it was 0.0074 µM (active); in the experiment with U-251, < 0.01 µM (active). Also, the GI50 in the experiment with UACC-257 was < 0.01 µM (active).
For the compound `CCOC(=O)c1ccc(N(CCOS(C)(=O)=O)CCOS(C)(=O)=O)cc1`, the GI50 with A498 is 35.2 µM (inactive); with CAKI-1 it was 12.6 µM (inactive); in the experiment with CCRF-CEM it was 23.9 µM (inactive); in the experiment with COLO 205, 64.9 µM (inactive); in the experiment on HCC 2998 it was 60.3 µM (inactive); in the experiment on HOP-92, 37.6 µM (inactive). The GI50 with MOLT-4 is 17.8 µM (inactive); with Malme-3M, 38.8 µM (inactive); in the experiment on NCI-H23, 43.3 µM (inactive); with NCI-H460 it was 37 µM (inactive); with NCI/ADR-RES, 35.7 µM (inactive); with OVCAR-3, 36.6 µM (inactive). Moreover, the GI50 in the experiment with OVCAR-4 was 35.7 µM (inactive); with OVCAR-5, 34.9 µM (inactive); in the experiment on SK-MEL-28 it was > 100 µM (inactive); in the experiment with SK-MEL-2, 55.2 µM (inactive); with SNB-19, 90.6 µM (inactive); in the experiment on U-251, 35.9 µM (inactive). In the experiment on UACC-257, the GI50 is > 100 µM (inactive).
Take `O=c1cnn(C/C=C/CBr)c(=O)[nH]1`: the GI50 in the experiment with A498 is 14.9 µM (inactive); in the experiment on CAKI-1, 12.9 µM (inactive); with CCRF-CEM, 15.2 µM (inactive); in the experiment with COLO 205, 18.8 µM (inactive); in the experiment with HCC 2998 it was 18.5 µM (inactive); with HOP-92 it was 14.6 µM (inactive). Also, the GI50 was 19.6 µM (inactive) in the experiment with MOLT-4; 16.4 µM (inactive) in the experiment with Malme-3M; 17 µM (inactive) in the experiment with NCI-H226; 17.2 µM (inactive) with NCI-H460; 23.3 µM (inactive) in the experiment on NCI/ADR-RES; 25.7 µM (inactive) in the experiment on OVCAR-3. The GI50 in the experiment with OVCAR-4 was 20.6 µM (inactive); in the experiment with OVCAR-5 it was 17.4 µM (inactive); in the experiment on SK-MEL-28, 19.2 µM (inactive); in the experiment on SK-MEL-2, 17.1 µM (inactive); with SNB-19, 24.7 µM (inactive); in the experiment on U-251 it was 15 µM (inactive). Further, in the experiment on UACC-257, the GI50 is 13.9 µM (inactive).
Consider `CCOP(=O)(COCCn1ncc(=O)[nH]c1=O)OCC`, for which the GI50 in the experiment on A498, in the experiment on CAKI-1, in the experiment with CCRF-CEM, in the experiment on COLO 205, with HCC 2998 and with HOP-92 was > 100 µM (inactive) throughout. Further, the GI50 with MOLT-4, with Malme-3M, with NCI-H226, in the experiment with NCI-H23, in the experiment with NCI-H460 and in the experiment on NCI/ADR-RES was > 100 µM (inactive) each time. In addition, the GI50 in the experiment on OVCAR-3, in the experiment with OVCAR-5, with SK-MEL-28, with SK-MEL-2, in the experiment with SNB-19 and in the experiment on U-251 was > 100 µM (inactive) each time.
